Reference: ChEMBL document CHEMBL1201862, “PubChem BioAssay data set” (2004)
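96-well plates; 48 h exposure; 5 concentrations. Endpoints by linear interpolation between flanking doses. Not reached: highest tested concentration assigned. Here, GI50 denotes the concentration required for 50% inhibition of growth.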 Calls of active or inactive are those of the source. Rule as the data show it: active = GI50 up to about 1.1 µM and inactive = higher.

What was measured:
Experiment in all cases: NCI-60 cell line screen, 48 h
[1] = system: M14
[2] = system: KM12
[3] = system: NCI-H23
[4] = system: MOLT-4
[5] = system: ACHN
[6] = system: RXF 393
[7] = system: RPMI-8226
[8] = system: HCC 2998
[9] = system: HOP-92
[10] = system: LOX IMVI
[11] = system: HCT-15
[12] = system: CAKI-1
[13] = system: OVCAR-8
[14] = system: NCI-H460
[15] = system: OVCAR-3
[16] = system: HL-60
[17] = system: OVCAR-4
[18] = system: OVCAR-5
[19] = system: SR

| Compound | GI50 [1] | GI50 [2] | GI50 [3] | GI50 [4] | GI50 [5] | GI50 [6] | GI50 [7] | GI50 [8] | GI50 [9] | GI50 [10] | GI50 [11] | GI50 [12] | GI50 [13] | GI50 [14] | GI50 [15] | GI50 [16] | GI50 [17] | GI50 [18] | GI50 [19] |
| --- | --- | --- | --- | --- | --- | --- | --- | --- | --- | --- | --- | --- | --- | --- | --- | --- | --- | --- | --- |
| NC(CCCC(N)P(=O)(O)O)P(=O)(O)O (stereo not drawn) | > 100 µM (inactive) | > 100 µM (inactive) | > 100 µM (inactive) | > 100 µM (inactive) | > 100 µM (inactive) | > 100 µM (inactive) | > 100 µM (inactive) | > 100 µM (inactive) | 64.7 µM (inactive) | > 100 µM (inactive) | > 100 µM | > 100 µM (inactive) | > 100 µM (inactive) | > 100 µM (inactive) | > 100 µM (inactive) |  |  |  |  |
| COc1ccccc1/C=C1\C(=O)N(C(=O)Cc2ccccc2)N=C1C | > 100 µM (inactive) | > 100 µM (inactive) | > 100 µM (inactive) | > 100 µM (inactive) | > 100 µM (inactive) |  | > 100 µM (inactive) | > 100 µM (inactive) |  | > 100 µM (inactive) | > 100 µM | > 100 µM (inactive) | > 100 µM (inactive) | > 100 µM (inactive) | > 100 µM (inactive) | > 100 µM (inactive) | > 100 µM (inactive) | > 100 µM (inactive) | > 100 µM (inactive) |
| CSc1csc(-c2ccc(-c3ccc(-c4cc(SC)cs4)s3)s2)c1 | > 100 µM (inactive) | > 100 µM (inactive) | > 100 µM (inactive) | > 100 µM (inactive) | > 100 µM (inactive) |  | > 100 µM (inactive) | > 100 µM (inactive) |  | > 100 µM (inactive) | > 100 µM |  |  | > 100 µM (inactive) | > 100 µM (inactive) |  | > 100 µM (inactive) | > 100 µM (inactive) | > 100 µM (inactive) |
| CC12CCC(=O)N1[C@@H](c1ccccc1)[C@@H](c1ccccc1)O2 (stereo partly drawn) | > 100 µM (inactive) | > 100 µM (inactive) |  | > 100 µM (inactive) | > 100 µM (inactive) |  |  | > 100 µM (inactive) | 84.7 µM (inactive) | > 100 µM (inactive) | > 100 µM | > 100 µM (inactive) | > 100 µM (inactive) | > 100 µM (inactive) | > 100 µM (inactive) | > 100 µM (inactive) | > 100 µM (inactive) | > 100 µM (inactive) |  |
| COc1ccc(/C(=N/NC(N)=O)C2(O)C(=O)Nc3ccc([N+](=O)[O-])cc32)cc1 (stereo not drawn) | 15.3 µM (inactive) | 22.6 µM (inactive) | 17 µM (inactive) | 19.6 µM (inactive) | 16.6 µM (inactive) |  | 25.6 µM (inactive) | 37.3 µM (inactive) | 22.4 µM (inactive) |  | 20.7 µM | 24.2 µM (inactive) | 22.3 µM (inactive) | 19.3 µM (inactive) | 18.1 µM (inactive) |  | 13.6 µM (inactive) | 31.5 µM (inactive) | 17.4 µM (inactive) |
| COC1C(CN[N+](=O)CC2OC3OC(C)(C)OC3C2OC)OC2OC(C)(C)OC21 (stereo not drawn) | > 100 µM (inactive) | > 100 µM (inactive) | > 100 µM (inactive) | > 100 µM (inactive) | > 100 µM (inactive) | > 100 µM (inactive) |  | > 100 µM (inactive) | > 100 µM (inactive) | > 100 µM (inactive) | > 100 µM | > 100 µM (inactive) | > 100 µM (inactive) | > 100 µM (inactive) | > 100 µM (inactive) | > 100 µM (inactive) | > 100 µM (inactive) | > 100 µM (inactive) |  |
| CCOC(=O)Cn1c(=O)n(C)c(=O)c2[nH]cnc21 | > 100 µM (inactive) | > 100 µM (inactive) | > 100 µM (inactive) | > 100 µM (inactive) | > 100 µM (inactive) |  | > 100 µM (inactive) |  | > 100 µM (inactive) |  | > 100 µM | > 100 µM (inactive) | > 100 µM (inactive) | > 100 µM (inactive) | > 100 µM (inactive) |  |  |  | > 100 µM (inactive) |
| N#Cc1cccc(N2C(=O)c3ccc(C(=O)c4ccc5c(c4)C(=O)N(c4cccc(C#N)c4)C5=O)cc3C2=O)c1 | > 100 µM (inactive) | > 100 µM (inactive) | > 100 µM (inactive) | > 100 µM (inactive) |  | > 100 µM (inactive) | > 100 µM (inactive) |  | 59 µM (inactive) | > 100 µM (inactive) | > 100 µM | > 100 µM (inactive) | > 100 µM (inactive) | > 100 µM (inactive) | > 100 µM (inactive) | > 100 µM (inactive) | > 100 µM (inactive) | > 100 µM (inactive) |  |
| CC(=O)C(C)C(=O)N1C(=O)N(C)C2(C)N(C)C(=O)NC12C (stereo not drawn) | > 100 µM (inactive) | > 100 µM (inactive) | > 100 µM (inactive) |  | > 100 µM (inactive) |  | > 100 µM (inactive) | > 100 µM (inactive) | > 100 µM (inactive) |  | > 100 µM | > 100 µM (inactive) |  | > 100 µM (inactive) | > 100 µM (inactive) | > 100 µM (inactive) | > 100 µM (inactive) | > 100 µM (inactive) | > 100 µM (inactive) |
